{"source": "ChEMBL document CHEMBL5550161", "about": "“Discovery of novel small molecules targeting the USP21/JAK2/STAT3 axis for the treatment of triple-negative breast cancer” (Eur J Med Chem, 2024)", "key": {"HCC1806 [1]": {"test_system": "HCC1806", "test": "Induction of apoptosis in human HCC1806 cells assessed as decrease in Bcl-2 level by Western blot analysis", "assay_type": "functional, cell-based", "conditions": "dose 0.1-0.4 µM"}, "HCC1806 [2]": {"test_system": "HCC1806", "test": "Downregulation of SOCS3 level in human HCC1806 cells at 0.1 to 0.4 uM incubated for 24 hrs by Western blot analysis", "assay_type": "functional, cell-based", "conditions": "dose 0.1-0.4 µM"}, "[3]": {"test": "Toxicity in Balb/c nude mouse assessed as histopathological change in kidney at 60 mg/kg, ip bid for 14 days consecutively", "assay_type": "organism-based", "conditions": "in vivo, 336 h, time 14 day"}, "HCC1806 [4]": {"test_system": "HCC1806", "test": "Anti-proliferative activity against human HCC1806 cells assessed as cell growth inhibition incubated for 72 hrs by MTT assay", "assay_type": "functional, cell-based", "conditions": "HCC1806, 72 h"}, "MDA-MB-231 [5]": {"test_system": "MDA-MB-231", "test": "Induction of apoptosis in human MDA-MB-231 cells assessed as late apoptotic cells at 0.2 uM incubated for 24 hrs by Annexin V-FITC/PI staining based flow cytometry (reference value: 1.23 %)", "assay_type": "functional"}, "HCC1806 [6]": {"test_system": "HCC1806", "test": "Induction of apoptosis in human HCC1806 cells assessed as necrotic cells at 1.6 uM incubated for 24 hrs by Annexin V-FITC/PI staining based flow cytometry (reference value: 0.15 %)", "assay_type": "functional"}, "HCC1806 [7]": {"test_system": "HCC1806", "test": "Induction of apoptosis in human HCC1806 cells assessed as viable cells at 1.6 uM incubated for 24 hrs by Annexin V-FITC/PI staining based flow cytometry (reference value: 98.95 %)", "assay_type": "functional", "conditions": "read-out: Activity"}, "MDA-MB-231 [8]": {"test_system": "MDA-MB-231", "test": "Induction of apoptosis in human MDA-MB-231 cells assessed as decrease in JAK2 level by Western blot analysis", "assay_type": "functional, cell-based", "conditions": "dose 0.1-0.4 µM"}, "HCC1806 [9]": {"test_system": "HCC1806", "test": "Induction of apoptosis in human HCC1806 cells assessed as viable cells at 0.1 uM incubated for 24 hrs by Annexin V-FITC/PI staining based flow cytometry (reference value: 98.95 %)", "assay_type": "functional", "conditions": "read-out: Activity"}, "HCC1806 [10]": {"test_system": "HCC1806", "test": "Induction of apoptosis in human HCC1806 cells assessed as viable cells at 0.2 uM incubated for 24 hrs by Annexin V-FITC/PI staining based flow cytometry (reference value: 98.95 %)", "assay_type": "functional", "conditions": "read-out: Activity"}, "MDA-MB-231 [11]": {"test_system": "MDA-MB-231", "test": "Induction of apoptosis in human MDA-MB-231 cells assessed as ROS production rate at 0.1 uM incubated for 24 hrs by DCFH-DA staining based flow cytometry (reference value: 0.28 %)", "assay_type": "functional"}, "MDA-MB-231 [12]": {"test_system": "MDA-MB-231", "test": "Induction of apoptosis in human MDA-MB-231 cells assessed as early apoptotic cells at 0.1 uM incubated for 24 hrs by Annexin V-FITC/PI staining based flow cytometry (reference value: 1.16 %)", "assay_type": "functional"}, "[13]": {"test": "Toxicity in Balb/c nude mouse assessed as histopathological change in spleen at 60 mg/kg, ip bid for 14 days consecutively", "assay_type": "organism-based", "conditions": "in vivo, 336 h, time 14 day"}, "HCC1806 [14]": {"test_system": "HCC1806", "test": "Antitumor activity against human HCC1806 cells xenografted in Balb/c mouse assessed as increase in E-cadherin level at 40 to 60 mg/kg, ip bid measured after 14 days by IHC analysis", "assay_type": "functional, organism-based", "conditions": "dose 40-60 mg/kg, time 14.0 day"}, "MDA-MB-231 [15]": {"test_system": "MDA-MB-231", "test": "Induction of apoptosis in human MDA-MB-231 cells assessed as late apoptotic cells at 0.1 uM incubated for 24 hrs by Annexin V-FITC/PI staining based flow cytometry (reference value: 1.23 %)", "assay_type": "functional"}, "MDA-MB-231 [16]": {"test_system": "MDA-MB-231", "test": "Induction of apoptosis in human MDA-MB-231 cells assessed as late apoptotic cells at 0.4 uM incubated for 24 hrs by Annexin V-FITC/PI staining based flow cytometry (reference value: 1.23 %)", "assay_type": "functional"}, "HCC1806 [17]": {"test_system": "HCC1806", "test": "Antitumor activity against human HCC1806 cells xenografted in Balb/c mouse assessed as decrease in Ki67 level at 40 to 60 mg/kg, ip bid measured after 14 days by IHC analysis", "assay_type": "functional, organism-based", "conditions": "dose 40-60 mg/kg, time 14.0 day"}, "MDA-MB-231 [18]": {"test_system": "MDA-MB-231", "test": "Induction of apoptosis in human MDA-MB-231 cells assessed as decrease in Bcl-2 level by Western blot analysis", "assay_type": "functional, cell-based", "conditions": "dose 0.1-0.4 µM"}, "HCC1806 [19]": {"test_system": "HCC1806", "test": "Induction of cell cycle arrest at G2/M phase in human HCC1806 cells at 0.1 to 0.4 uM incubated for 24 hrs", "assay_type": "functional, cell-based", "conditions": "dose 0.1-0.4 µM"}, "HCC1806 [20]": {"test_system": "HCC1806", "test": "Anti-proliferative activity against human HCC1806 cells assessed as cell survival", "assay_type": "functional", "conditions": "dose < 0.4 µM; time 24 hrs"}, "HCC1806 [21]": {"test_system": "HCC1806", "test": "Induction of apoptosis in human HCC1806 cells assessed as viable cells at 0.8 uM incubated for 24 hrs by Annexin V-FITC/PI staining based flow cytometry (reference value: 98.95 %)", "assay_type": "functional", "conditions": "read-out: Activity"}, "HCC1806 [22]": {"test_system": "HCC1806", "test": "Induction of apoptosis in human HCC1806 cells assessed as late apoptotic cells at 0.1 uM incubated for 24 hrs by Annexin V-FITC/PI staining based flow cytometry (reference value: 0.23 %)", "assay_type": "functional"}, "HCC1806 [23]": {"test_system": "HCC1806", "test": "Induction of apoptosis in human HCC1806 cells assessed as ROS production rate at 0.1 uM incubated for 24 hrs by DCFH-DA staining based flow cytometry (reference value: 0.23 %)", "assay_type": "functional"}, "HCC1806 [24]": {"test_system": "HCC1806", "test": "Induction of apoptosis in human HCC1806 cells assessed as viable cells at 0.4 uM incubated for 24 hrs by Annexin V-FITC/PI staining based flow cytometry (reference value: 98.95 %)", "assay_type": "functional", "conditions": "read-out: Activity"}, "MDA-MB-231 [25]": {"test_system": "MDA-MB-231", "test": "Induction of cell cycle arrest at G2/M phase in human MDA-MB-231 cells at 0.1 to 0.4 uM incubated for 24 hrs", "assay_type": "functional, cell-based", "conditions": "dose 0.1-0.4 µM"}, "[26]": {"test": "Toxicity in Balb/c nude mouse assessed as animal mortality at 60 mg/kg, ip bid for 14 days consecutively", "assay_type": "organism-based", "conditions": "in vivo, 336 h, time 14 day"}, "HCC1806 [27]": {"test_system": "HCC1806", "test": "Antitumor activity against human HCC1806 cells xenografted in Balb/c mouse assessed as decrease in STAT3 level at 40 to 60 mg/kg, ip bid measured after 14 days by immunofluorescence based analysis", "assay_type": "functional, organism-based", "conditions": "dose 40-60 mg/kg, time 14.0 day"}, "HCC1806 [28]": {"test_system": "HCC1806", "test": "Induction of apoptosis in human HCC1806 cells assessed as late apoptotic cells at 0.8 uM incubated for 24 hrs by Annexin V-FITC/PI staining based flow cytometry (reference value: 0.23 %)", "assay_type": "functional"}, "MDA-MB-231 [29]": {"test_system": "MDA-MB-231", "test": "Induction of apoptosis in human MDA-MB-231 cells assessed as viable cells at 0.1 uM incubated for 24 hrs by Annexin V-FITC/PI staining based flow cytometry (reference value: 97.54 %)", "assay_type": "functional", "conditions": "read-out: Activity"}, "HCC1806 [30]": {"test_system": "HCC1806", "test": "Induction of apoptosis in human HCC1806 cells assessed as necrotic cells at 0.4 uM incubated for 24 hrs by Annexin V-FITC/PI staining based flow cytometry (reference value: 0.15 %)", "assay_type": "functional"}, "[31]": {"test": "Toxicity in Balb/c nude mouse assessed as behavioural changes at 60 mg/kg, ip bid for 14 days consecutively", "assay_type": "organism-based", "conditions": "in vivo, 336 h, time 14 day"}, "[32]": {"test": "AUC (0 to infinity) in Sprague-Dawley rat at 4 mg/kg, ip", "assay_type": "ADME, organism-based", "conditions": "in vivo"}, "MDA-MB-231 [33]": {"test_system": "MDA-MB-231", "test": "Induction of apoptosis in human MDA-MB-231 cells assessed as early apoptotic cells at 1.6 uM incubated for 24 hrs by Annexin V-FITC/PI staining based flow cytometry (reference value: 1.16 %)", "assay_type": "functional"}, "MDA-MB-231 [34]": {"test_system": "MDA-MB-231", "test": "Induction of apoptosis in human MDA-MB-231 cells assessed as ROS production rate at 0.4 uM incubated for 24 hrs by DCFH-DA staining based flow cytometry (reference value: 0.28 %)", "assay_type": "functional"}, "MDA-MB-231 [35]": {"test_system": "MDA-MB-231", "test": "Inhibition of colony formation in human MDA-MB-231 cells at 0.05 uM measured after 7 days", "assay_type": "functional, cell-based", "conditions": "time 7.0 day"}, "HCC1806 [36]": {"test_system": "HCC1806", "test": "Induction of apoptosis in human HCC1806 cells assessed as decrease in STAT3 phosphorylation at Y705 by Western blot analysis", "assay_type": "functional, cell-based", "conditions": "dose 0.1-0.4 µM"}}, "note": "Active and inactive are the calls of the source. No cut-off for these calls is given here."}
{"smiles": "COc1cc(Nc2cc(F)ccc2C(=O)NCCc2c[nH]c3c(F)ccc(F)c23)cc(OC)c1OC", "values": [{"measurement": "Activity", "setting": "HCC1806 [1]", "value": "Active"}, {"measurement": "Activity", "setting": "HCC1806 [2]", "value": "Active"}, {"measurement": "Activity", "setting": "[3]", "value": "Non-Toxic"}, {"measurement": "IC50", "setting": "HCC1806 [4]", "value": 250, "unit": "nM"}, {"measurement": "Activity", "setting": "MDA-MB-231 [5]", "value": 1.69, "unit": "%"}, {"measurement": "Activity", "setting": "HCC1806 [6]", "value": 0.35, "unit": "%"}, {"measurement": "viability at 1.6 µM", "setting": "HCC1806 [7]", "value": 92.9, "unit": "%"}, {"measurement": "Activity", "setting": "MDA-MB-231 [8]", "value": "Active"}, {"measurement": "viability at 0.1 µM", "setting": "HCC1806 [9]", "value": 99, "unit": "%"}, {"measurement": "viability at 0.2 µM", "setting": "HCC1806 [10]", "value": 98.1, "unit": "%"}, {"measurement": "Activity", "setting": "MDA-MB-231 [11]", "value": 0.61, "unit": "%"}, {"measurement": "Activity", "setting": "MDA-MB-231 [12]", "value": 1.66, "unit": "%"}, {"measurement": "Activity", "setting": "[13]", "value": "Non-Toxic"}, {"measurement": "Activity", "setting": "HCC1806 [14]", "value": "Active"}, {"measurement": "Activity", "setting": "MDA-MB-231 [15]", "value": 1.23, "unit": "%"}, {"measurement": "Activity", "setting": "MDA-MB-231 [16]", "value": 1.83, "unit": "%"}, {"measurement": "Activity", "setting": "HCC1806 [17]", "value": "Active"}, {"measurement": "Activity", "setting": "MDA-MB-231 [18]", "value": "Active"}, {"measurement": "Activity", "setting": "HCC1806 [19]", "value": "Active"}, {"measurement": "Survival", "setting": "HCC1806 [20]", "value": ">80", "unit": "%"}, {"measurement": "viability at 0.8 µM", "setting": "HCC1806 [21]", "value": 94, "unit": "%"}, {"measurement": "Activity", "setting": "HCC1806 [22]", "value": 0.29, "unit": "%"}, {"measurement": "Activity", "setting": "HCC1806 [23]", "value": 0.66, "unit": "%"}, {"measurement": "viability at 0.4 µM", "setting": "HCC1806 [24]", "value": 96, "unit": "%"}, {"measurement": "Activity", "setting": "MDA-MB-231 [25]", "value": "Active"}, {"measurement": "Activity", "setting": "[26]", "value": "Non-Toxic"}, {"measurement": "Activity", "setting": "HCC1806 [27]", "value": "Active"}, {"measurement": "Activity", "setting": "HCC1806 [28]", "value": 1.48, "unit": "%"}, {"measurement": "viability at 0.1 µM", "setting": "MDA-MB-231 [29]", "value": 96.9, "unit": "%"}, {"measurement": "Activity", "setting": "HCC1806 [30]", "value": 0.28, "unit": "%"}, {"measurement": "Activity", "setting": "[31]", "value": "Non-Toxic"}, {"measurement": "AUC(0-inf)", "setting": "[32]", "value": 1970, "unit": "ng·h/mL"}, {"measurement": "Activity", "setting": "MDA-MB-231 [33]", "value": 7.55, "unit": "%"}, {"measurement": "Activity", "setting": "MDA-MB-231 [34]", "value": 3.17, "unit": "%"}, {"measurement": "inhibition", "setting": "MDA-MB-231 [35]", "value": "Active"}, {"measurement": "Activity", "setting": "HCC1806 [36]", "value": "Active"}]}
